Assay results published in ChEMBL document CHEMBL1201862, “PubChem BioAssay data set” (2004).
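Tested at 5 concentrations; 48 h exposure; 96-well plates; endpoints linearly interpolated, else capped at highest concentration. The concentration for 50% growth inhibition is given as GI50.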 Calls of active or inactive are those of the source. Rule as the data show it: active = GI50 up to about 1.1 µM and inactive = higher.

How the values were obtained:
Experiment in all cases: NCI tumour cell line growth inhibition, 48 h
[1] = system: CCRF-CEM
[2] = system: COLO 205
[3] = system: DMS-273
[4] = system: HCC 2998
[5] = system: K562
[6] = system: LOX IMVI
[7] = system: M14
[8] = system: Malme-3M
[9] = system: OVCAR-4
[10] = system: OVCAR-5
[11] = system: RPMI-8226
[12] = system: RXF 393
[13] = system: SF-295
[14] = system: SK-MEL-5
[15] = system: SNB-75
[16] = system: MDA-N
[17] = system: NCI/ADR-RES
[18] = system: PC-3
[19] = system: SR
[20] = system: T47D

SMILES	GI50 [1]	GI50 [2]	GI50 [3]	GI50 [4]	GI50 [5]	GI50 [6]	GI50 [7]	GI50 [8]	GI50 [9]	GI50 [10]	GI50 [11]	GI50 [12]	GI50 [13]	GI50 [14]	GI50 [15]	GI50 [16]	GI50 [17]	GI50 [18]	GI50 [19]	GI50 [20]
CCCCN(CCCC)CC(C(=O)Nc1ccc([N+](=O)[O-])cc1[N+](=O)[O-])/C(C)=N\NC(=O)c1ccncc1 (centres undefined)	> 100 µM (inactive)	> 100 µM (inactive)	> 100 µM (inactive)	> 100 µM (inactive)	> 100 µM (inactive)	> 100 µM (inactive)	> 100 µM (inactive)	> 100 µM (inactive)	> 100 µM (inactive)	> 100 µM (inactive)	> 100 µM (inactive)	> 100 µM (inactive)	> 100 µM (inactive)	> 100 µM (inactive)	76.6 µM (inactive)	–	–	–	–	–
Cc1cc(C)c2c(=O)n(CC(O)CN3CCN(c4ncccn4)CC3)sc2n1 (centres undefined)	5.79 µM (inactive)	19 µM (inactive)	–	18.9 µM (inactive)	22.3 µM (inactive)	17.1 µM (inactive)	15.7 µM (inactive)	20.1 µM (inactive)	18.6 µM (inactive)	16.5 µM (inactive)	4.71 µM (inactive)	17.5 µM (inactive)	> 100 µM (inactive)	20.5 µM (inactive)	15.1 µM (inactive)	16 µM (inactive)	31 µM (inactive)	18.7 µM (inactive)	4.79 µM (inactive)	23.4 µM (inactive)
COC(=O)c1ccc(/C=C/c2cc(O)ccc2O)cc1	0.242 µM (active)	4.97 µM (inactive)	–	20 µM (inactive)	1.04 µM (active)	2.24 µM (inactive)	13.1 µM (inactive)	0.923 µM (active)	4.5 µM (inactive)	5.07 µM (inactive)	0.333 µM (active)	2.25 µM (inactive)	13.1 µM (inactive)	3.82 µM (inactive)	15 µM (inactive)	3.44 µM (inactive)	2.08 µM (inactive)	1.48 µM (inactive)	0.787 µM (active)	1.6 µM (inactive)
Cc1ccc(/C=C/C(=O)c2sc(C(N)=S)nc2C)cc1	> 100 µM (inactive)	> 100 µM (inactive)	> 100 µM (inactive)	> 100 µM (inactive)	> 100 µM (inactive)	> 100 µM (inactive)	–	> 100 µM (inactive)	–	> 100 µM (inactive)	> 100 µM (inactive)	> 100 µM (inactive)	> 100 µM (inactive)	45.8 µM (inactive)	> 100 µM (inactive)	–	–	–	–	–
COc1ccc2c(c1)C(=O)C(=O)c1cc(O)c(OC)c(OC)c1-2	0.791 µM (active)	1.31 µM (inactive)	–	4.55 µM (inactive)	0.838 µM (active)	0.883 µM (active)	0.933 µM (active)	0.832 µM (active)	0.719 µM (active)	1.12 µM (inactive)	1.09 µM (active)	0.9 µM (active)	0.805 µM (active)	0.826 µM (active)	1.18 µM (inactive)	0.697 µM (active)	1.03 µM (active)	1.07 µM (active)	0.818 µM (active)	1.13 µM (inactive)
COc1cccc(C2ON=C(c3ccccc3)N2C23CC4CC(CC(C4)C2)C3)c1 (centres undefined)	> 10 µM (inactive)	> 10 µM (inactive)	–	> 10 µM (inactive)	8.41 µM (inactive)	> 10 µM (inactive)	> 10 µM (inactive)	> 10 µM (inactive)	5.46 µM (inactive)	> 10 µM (inactive)	7.24 µM (inactive)	> 10 µM (inactive)	> 10 µM (inactive)	> 10 µM (inactive)	8.91 µM (inactive)	> 10 µM (inactive)	> 10 µM (inactive)	9.35 µM (inactive)	2.09 µM (inactive)	> 10 µM (inactive)
O=C1CSC(c2ccccc2)N1c1nc2cc3sc(N4C(=O)CSC4c4ccccc4)nc3cc2s1 (centres undefined)	4.35 µM (inactive)	2.85 µM (inactive)	–	> 93.3 µM (inactive)	47.4 µM (inactive)	25.4 µM (inactive)	> 87.3 µM (inactive)	> 87.7 µM (inactive)	60.1 µM (inactive)	60 µM (inactive)	71.1 µM (inactive)	> 100 µM (inactive)	> 100 µM (inactive)	32.3 µM (inactive)	38 µM (inactive)	> 64.4 µM (inactive)	25.2 µM (inactive)	48.4 µM (inactive)	16.5 µM (inactive)	61 µM (inactive)
N=C(N)NS(=O)(=O)c1ccc(NC(=O)c2cccc3c(NNc4ccc(S(=O)(=O)N=C(N)N)cc4)c4ccccc4nc23)cc1	19.3 µM (inactive)	92.7 µM (inactive)	–	90.6 µM (inactive)	28.1 µM (inactive)	34.8 µM (inactive)	> 100 µM (inactive)	38.2 µM (inactive)	80.5 µM (inactive)	> 100 µM (inactive)	37.9 µM (inactive)	> 100 µM (inactive)	> 100 µM (inactive)	56.9 µM (inactive)	> 100 µM (inactive)	91.4 µM (inactive)	> 100 µM (inactive)	61 µM (inactive)	32.6 µM (inactive)	22.6 µM (inactive)
CCCCCCCCCCCCCCCCCC(=O)OCC(COC1OC(COP(=O)(O)O)C(O)C(O)C1O)OC(=O)CCCCCCCCCCCCCCCCC (centres undefined)	4.95 µM (inactive)	9.59 µM (inactive)	–	7.29 µM (inactive)	9.89 µM (inactive)	9.06 µM (inactive)	9.14 µM (inactive)	7.52 µM (inactive)	7.41 µM (inactive)	5.28 µM (inactive)	13.6 µM (inactive)	8.95 µM (inactive)	4.02 µM (inactive)	9.1 µM (inactive)	4.63 µM (inactive)	10.7 µM (inactive)	9.33 µM (inactive)	7.62 µM (inactive)	0.0227 µM (active)	11.9 µM (inactive)
COc1cc(C2c3cc4c(cc3OC(N3CCCC3)C2C)OCO4)cc(OC)c1O (centres undefined)	15.1 µM (inactive)	23.1 µM (inactive)	–	28.2 µM (inactive)	4.88 µM (inactive)	23 µM (inactive)	16 µM (inactive)	8.09 µM (inactive)	59.6 µM (inactive)	61.5 µM (inactive)	45.6 µM (inactive)	7.46 µM (inactive)	3.71 µM (inactive)	4.9 µM (inactive)	4.26 µM (inactive)	2.31 µM (inactive)	5.93 µM (inactive)	20.8 µM (inactive)	5.89 µM (inactive)	31.8 µM (inactive)
COc1ccc(CNc2nc3c(NC(C)=O)cc(C(F)(F)F)cc3nc2-c2ccccc2)cc1OC	> 100 µM (inactive)	> 100 µM (inactive)	21.9 µM (inactive)	> 100 µM (inactive)	> 100 µM (inactive)	> 100 µM (inactive)	42.8 µM (inactive)	95.3 µM (inactive)	10.6 µM (inactive)	> 100 µM (inactive)	68.5 µM (inactive)	–	50 µM (inactive)	21.5 µM (inactive)	1.32 µM (inactive)	–	–	–	–	–
